Laboratory results from US10076509B2, “Nested particles and the use thereof for coordinated delvery of active agents” (Board of Regents, the University of Texas System, priority 2015, dated 2018).

Legend:
[1] = Release kinetics from nested nanoparticles (fluorophore release, zeta potential over time); format: physicochemical; conditions: PBS pH 7.4, 37° C.
Method: FIGS. 4A-C. Examination of nested nanoparticle release kinetics. 4A. […] 4B. […] 4C.
Fluorophore release was determined according to a previously published procedure (Woodrow et al., 2009). Absorbance of bodipy and rhodamine were detected using the Synergy H4 Hybrid Reader as described above. In a separate study, nanoparticles were centrifuged at predetermined timepoints, resuspended in water, and the surface charge determined via zeta potential analysis, as described above.

[2] = Finite Element modeling of release kinetics from nested nanoparticles
Text: Due to the fact that the physico-chemical properties of the core and shell, as well as bodipy and rhodamine, are different, a computational method accounting for diffusivities and molecule partitioning was used to analyze release kinetics from nested nanoparticles. Use of the model helped determine that sequential release may be achieved and controlled not only by different diffusion properties in different phases, but also partitioning. […] The model estimated experimental release curves by using partitioning coefficients of 5.0×109 and 2.2×1011 for bodipy and rhodamine, respectively (FIG. 4a). The half-time of release of the maximum releasable material was estimated to be 15 h for the shell and 46 h for the core. The diffusivity of rhodamine inside the PLGA nanoparticle matrix was estimated to be 4×10^−10 cm2/s, which was approximately 104 times lower than that in water, while that of bodipy in the shell was reduced by only 5 times compared to that in water. […] This is illustrated in the distinct phases of dominant fluxes over time (FIG. 4b).
A Finite Element (FE) method was used to model drug diffusion. The model included partitioning conditions at the surfaces, in this case between the core and the surrounding fluid. Thus, aside from the incremental-iterative system of mass balance equations (Kojic et al., 2008; Ziemys et al., 2011; Kojic et al., 2011):
the partitioning condition was included ΔNs/ΔNf=ΔCs/Δf=P Here, M and K are element mass and diffusion matrices, ΔC represents nodal concentration increments, Q^ext and Q^tnt are external and internal nodal mass fluxes; ΔNs and ΔNf are number of molecules of solid and fluid (per FE node) passing during time step Δt, and ΔCs and ΔCf are the corresponding concentration changes at boundary nodes with partitioning property; P is partitioning coefficient; and i specifies the equilibrium iteration counter. The important material parameter in the above balance equation is the diffusion coefficient D entering the diffusion matrix K:
[formula] where NI, NJ are interpolation functions and V is element volume. […]

[3] = test system: MCF-7 breast tumor xenografts; experiment: In vivo accumulation and release of nested nanoparticles in breast tumors
Method: MCF-7 cells (5×10^6) were inoculated in the mammary fat pads of 4- to 6-week-old female nu/nu mice. Mice were implanted with 17β-estradiol pellets subcutaneously. Nanoparticles were administered intravenously and at predetermined timepoints, the mouse was sacrificed and the tumor harvested. Tumor tissues were frozen and sectioned into 7 μm tissue slices using an HM 550 Cryostat (Thermo Fischer Scientific, Waltham, Mass., USA). Tissues were fixed and stained with 4% methanol-free paraformaldehyde for 20 min. Following fixation, samples were washed with PBS. Slides were mounted and tissues imaged using confocal microscopy as previously described. The presence of fluorescence over time, surface intensity plots, and area fraction of the tissue sections were examined using Nikon Elements v4.1 software. For area fraction analysis, the fluorescence emitted by bodipy and rhodamine was obtained from 4 sections from different regions of the tumor (n=3). A ratiometric percentage of area fractions of both fluorophores were extracted from the total area of the image.

[4] = model parameter; from literature for rhodamine, approximated from literature for bodipy; cited from earlier work
[5] = Release of rapamycin and paclitaxel from nested nanoparticles; format: physicochemical; conditions: rapamycin in outer shell, paclitaxel in polymeric core
Text: FIG. 14. Nested nanoparticles containing both rapamycin and paclitaxel release drug in a time and sequential fashion.

[6] = initial timepoints leading up to 3 h, bodipy in QAβ-CD shell, rhodamine in PLGA core

| Time after which release plateaus [1] | Cumulative release from nested nanoparticles ([1]; by 6 h) | Cumulative release from nested nanoparticles ([1]; by 12 h) | Cumulative release from nested nanoparticles [1, 6] | Reduction of diffusivity inside material compared to that in water ([2]; rhodamine in PLGA matrix, bodipy in shell) | Area fraction of fluorophore in tumor ([3]; mouse, in vivo, iv) | Area fraction: amount of fluorophore in tumor ([3]; mouse, in vivo, iv) | Fluorophore in tumor tissue ([3]; mouse, in vivo, iv) | Cumulative release from nested nanoparticles ([1]; "by this same timepoint" (12 h or 48 h, not clear)) | Cumulative release from nested nanoparticles ([1]; in 96 h) | Time after which rhodamine flux overtook the flux of bodipy ([2]; fluxes of release from nested nanoparticles) | Diffusivity inside the PLGA nanoparticle matrix ([2]; model estimate) | Area fraction of fluorophore in tumor ([3]; 3 h after intravenous nested nanoparticles) | Area fraction: amount of fluorophore in tumor ([3]; 96 h after intravenous nested nanoparticles) | Release from nested nanoparticles [5] | Compound | Dwater (diffusivity in water) [4] |
| --- | --- | --- | --- | --- | --- | --- | --- | --- | --- | --- | --- | --- | --- | --- | --- | --- |
| > 48 h | 34% | 50% | 7% | 5 times | ratiometrically similar amounts | decreased significantly | marked decrease | – | – | – | – | – | – | – | O=C(COc1ccc(/C=C/C2=[N+]3C(=Cc4ccc(-c5cccs5)n4[B-]3(F)F)C=C2)cc1)NCCCCCC(=O)ON1C(=O)CCC1=O [bodipy] | – |
| – | – | – | 3% | – | – | – | – | ~6% | 34% | > 24 h | 4×10^−10 cm2/s | ratiometrically similar amounts | increase | – | Rhodamine | 4.10^−6 cm^2/s |
| – | – | – | – | – | – | – | – | – | – | – | – | – | – | slow and prolonged release | CC(=O)O[C@H]1C(=O)[C@@]2(C)[C@H]([C@H](OC(=O)c3ccccc3)[C@]3(O)C[C@H](OC(=O)[C@H](O)[C@@H](NC(=O)c4ccccc4)c4ccccc4)C(C)=C1C3(C)C)[C@]1(OC(C)=O)CO[C@@H]1C[C@@H]2O [paclitaxel] | – |
